Target: T1, rat CB1 receptor (Rattus norvegicus, UniProt P20272)
T1 construct: contains an open reading frame of 1419 base pairs which corresponds to a protein of 473 amino acids; expressed in transfected cells; host or cells: CHOluc9 cells (CHO luciferase reporter line), stably transfected with pRc/CMV-based plasmid CMV-RH
Assay: CB1 luciferase reporter gene test
Assay type: cell-based
Conditions: CHOluc9 cells stably transfected with rat CB1, forskolin-stimulated luciferase; read-out: IC50 (nmol/l), activity in the rat CB1 receptor luciferase receptor gene test
Excerpt: CB1—Luciferase Reporter Gene Test
1. Cloning of the Rat Cannabinoid Receptor CB1
Total RNA from rat brain (the tissue was taken from freshly killed animals and shock-frozen in liquid nitrogen) was isolated by acidic guanidinium thiocyanate/phenol/chloroform extraction (J. Biol. Chem. 1979, 18, 5294) and converted into cDNA by means of reverse transcriptase and random primers (in each case from Invitrogen). […] This PCR product was subcloned into the TA cloning vector (Invitrogen) and the nucleotide sequence of the insert was determined by the dideoxynucleotide chain termination reaction using T7DNA polymerase (Sequenase, USA/Amersham). The insert has a length of 1477 base pairs and contains an open reading frame of 1419 base pairs which corresponds to a protein of 473 amino acids. The number of base pairs, the position of the open reading frame and the number of amino acids agree with the published sequence. […]

T1 sequence (P20272 whole entry): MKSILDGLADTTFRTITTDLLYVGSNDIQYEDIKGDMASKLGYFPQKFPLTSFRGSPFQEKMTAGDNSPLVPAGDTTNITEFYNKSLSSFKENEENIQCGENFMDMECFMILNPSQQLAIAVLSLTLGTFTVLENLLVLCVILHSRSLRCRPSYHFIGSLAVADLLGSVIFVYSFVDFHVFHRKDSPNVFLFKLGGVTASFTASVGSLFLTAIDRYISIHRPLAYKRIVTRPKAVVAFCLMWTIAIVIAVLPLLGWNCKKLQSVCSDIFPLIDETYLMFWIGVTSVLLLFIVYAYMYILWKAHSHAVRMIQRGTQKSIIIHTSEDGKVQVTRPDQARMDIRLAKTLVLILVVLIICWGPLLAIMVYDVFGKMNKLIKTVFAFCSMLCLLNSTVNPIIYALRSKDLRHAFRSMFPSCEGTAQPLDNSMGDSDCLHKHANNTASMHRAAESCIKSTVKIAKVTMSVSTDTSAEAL

**Q.** How did the IC50 turn out when `O=S(=O)(CCCC(F)(F)F)Oc1cccc(Oc2cccc3cc(CO)oc23)c1` [Example 1, 2-Hydroxymethyl-7-[3-(4,4,4-trifluorobutyl-1-sulphonyloxy)phenyl-1-oxy]-benzofuran] was run?
**A.** The IC50 was 0.55 nmol/L.

From patent US6727279B2, “Arylsulphonamides and analogues” (Bayer Aktiengesellschaft, priority 1998, dated 2004)
